The test concerns B6C3F1 mice, colon carcinoma 38 s.c., T/C. The test is described as follows: NCI In Vivo Anticancer Drug Screen. Data for tumor model Colon Carcinoma 38 (subcutaneous) in B6C3F1 mice. How it is done: The antitumor activity of compounds was measured in mice bearing transplantable tumors. Survival or tumor size were measured and the results are expressed as the measurement made in the treated group (T) divided by the measurement made in the vehicle treated control group (C). The tumor model used in this assay is Colon Carcinoma 38 (subcutaneous) in B6C3F1 mice

Setting [1] is: endpoint: median tumor weight (est.), dose: 50.0 mg/kg/injection, schedule: Q07DX002 (ip), vehicle: Klucel (hydroxypropylcellulose) (HPC), higher = larger tumour.

Where “and” joins values, the source holds several entries; their conditions need not be identical. Identical values can stand only once. Records with an inconclusive call do not appear.

For the compound `CCN(CC)CCOC(=O)Cc1cccc2c(=O)cc(-c3ccccc3)oc12`, the T/C by setting is: (endpoint: median survival time, dose: 3.12 mg/kg/injection, schedule: Q01DX001 (iv), vehicle: saline, higher = longer survival) 101 % of control; (endpoint: median survival time, dose: 3.12 mg/kg/injection, schedule: Q07DX002 (iv), vehicle: saline, higher = longer survival) 102 % of control; (endpoint: median survival time, dose: 6.25 mg/kg/injection, schedule: Q01DX001 (iv), vehicle: saline, higher = longer survival) 102 % of control; (endpoint: median survival time, dose: 6.25 mg/kg/injection, schedule: Q07DX002 (iv), vehicle: saline, higher = longer survival) 106 % of control; (endpoint: median survival time, dose: 15.82 mg/kg/injection, schedule: Q07DX002 (iv), vehicle: saline, higher = longer survival) 92 % of control; (endpoint: median survival time, dose: 21.09 mg/kg/injection, schedule: Q01DX001 (iv), vehicle: saline, higher = longer survival) 101 % of control. Further, the T/C runs as follows: (endpoint: median survival time, dose: 21.09 mg/kg/injection, schedule: Q07DX002 (iv), vehicle: saline, higher = longer survival) 96 % of control; (endpoint: median survival time, dose: 25.0 mg/kg/injection, schedule: Q07DX002 (iv), vehicle: saline, higher = longer survival) 87 % of control; (endpoint: median survival time, dose: 28.13 mg/kg/injection, schedule: Q01DX001 (iv), vehicle: saline, higher = longer survival) 100 % of control; (endpoint: median survival time, dose: 28.13 mg/kg/injection, schedule: Q07DX002 (iv), vehicle: saline, higher = longer survival) 121 % of control; (endpoint: median survival time, dose: 37.5 mg/kg/injection, schedule: Q01DX001 (iv), vehicle: saline, higher = longer survival) 92 % of control; (endpoint: median survival time, dose: 37.5 mg/kg/injection, schedule: Q07DX002 (iv), vehicle: saline, higher = longer survival) 110 % of control. For the same compound, the T/C (endpoint: median survival time, dose: 50.0 mg/kg/injection, schedule: Q01DX001 (iv), vehicle: saline, higher = longer survival) was 96 % of control; the T/C (endpoint: median survival time, dose: 112.5 mg/kg/injection, schedule: Q01DX001 (ip), vehicle: saline, higher = longer survival) was 89 % of control; the T/C (endpoint: median survival time, dose: 112.5 mg/kg/injection, schedule: Q07DX002 (ip), vehicle: saline, higher = longer survival) was 90 % of control and 120 % of control; the T/C (endpoint: median survival time, dose: 150.0 mg/kg/injection, schedule: Q01DX001 (ip), vehicle: saline, higher = longer survival) is 96 % of control and 99 % of control; the T/C (endpoint: median survival time, dose: 150.0 mg/kg/injection, schedule: Q07DX002 (ip), vehicle: saline, higher = longer survival) is 167 % of control and 218 % of control; the T/C (endpoint: median survival time, dose: 200.0 mg/kg/injection, schedule: Q07DX002 (ip), vehicle: saline, higher = longer survival) is 220 % of control and 238 % of control. For the same compound, the T/C reads like this: (endpoint: median survival time, dose: 266.7 mg/kg/injection, schedule: Q01DX001 (ip), vehicle: saline, higher = longer survival) 171 % of control and 176 % of control; (endpoint: median survival time, dose: 266.7 mg/kg/injection, schedule: Q07DX002 (ip), vehicle: saline, higher = longer survival) 220 % of control and 238 % of control; (endpoint: median survival time, dose: 355.6 mg/kg/injection, schedule: Q01DX001 (ip), vehicle: saline, higher = longer survival) 220 % of control and 232 % of control; (endpoint: median tumor weight (est.), dose: 21.09 mg/kg/injection, schedule: Q07DX002 (iv), vehicle: saline, higher = larger tumour) 86 % of control; (endpoint: median tumor weight (est.), dose: 26.7 mg/kg/injection, schedule: Q03HX024 (ip), vehicle: saline, higher = larger tumour) 115 % of control; (endpoint: median tumor weight (est.), dose: 28.13 mg/kg/injection, schedule: Q01DX001 (iv), vehicle: saline, higher = larger tumour) 77 % of control and 89 % of control. Also, the T/C (endpoint: median tumor weight (est.), dose: 35.6 mg/kg/injection, schedule: Q03HX024 (ip), vehicle: saline, higher = larger tumour) was 155 % of control; the T/C (endpoint: median tumor weight (est.), dose: 35.6 mg/kg/injection, schedule: Q06HX016 (ip), vehicle: saline, higher = larger tumour) was 86 % of control; the T/C (endpoint: median tumor weight (est.), dose: 37.5 mg/kg/injection, schedule: Q01DX001 (iv), vehicle: saline, higher = larger tumour) is 107 % of control; the T/C (endpoint: median tumor weight (est.), dose: 47.5 mg/kg/injection, schedule: Q01DX008 (ip), vehicle: saline, higher = larger tumour) was 79 % of control; the T/C (endpoint: median tumor weight (est.), dose: 47.5 mg/kg/injection, schedule: Q03HX006 (ip), vehicle: saline, higher = larger tumour) is 117 % of control; the T/C (endpoint: median tumor weight (est.), dose: 47.5 mg/kg/injection, schedule: Q03HX024 (ip), vehicle: saline, higher = larger tumour) is 83 % of control. In addition, the T/C (endpoint: median tumor weight (est.), dose: 47.5 mg/kg/injection, schedule: Q06HX016 (ip), vehicle: saline, higher = larger tumour) was 75 % of control; the T/C (endpoint: median tumor weight (est.), dose: 50.0 mg/kg/injection, schedule: Q01DX001 (iv), vehicle: saline, higher = larger tumour) was 50 % of control; the T/C (endpoint: median tumor weight (est.), dose: 63.3 mg/kg/injection, schedule: Q03HX006 (ip), vehicle: saline, higher = larger tumour) was 63 % of control; the T/C (endpoint: median tumor weight (est.), dose: 63.3 mg/kg/injection, schedule: Q06HX016 (ip), vehicle: saline, higher = larger tumour) is 93 % of control; the T/C (endpoint: median tumor weight (est.), dose: 84.4 mg/kg/injection, schedule: Q01DX008 (ip), vehicle: saline, higher = larger tumour) was 111 % of control; the T/C (endpoint: median tumor weight (est.), dose: 84.4 mg/kg/injection, schedule: Q03HX006 (ip), vehicle: saline, higher = larger tumour) is 63 % of control. For the same compound, the T/C was 75 % of control (endpoint: median tumor weight (est.), dose: 84.4 mg/kg/injection, schedule: Q06HX004 (ip), vehicle: saline, higher = larger tumour); 63 % of control (endpoint: median tumor weight (est.), dose: 84.4 mg/kg/injection, schedule: Q06HX016 (ip), vehicle: saline, higher = larger tumour); 60 % of control (endpoint: median tumor weight (est.), dose: 84.4 mg/kg/injection, schedule: Q07DX002 (ip), vehicle: saline, higher = larger tumour); 73 % of control (endpoint: median tumor weight (est.), dose: 112.5 mg/kg/injection, schedule: Q01DX008 (ip), vehicle: saline, higher = larger tumour); 18 % of control (endpoint: median tumor weight (est.), dose: 112.5 mg/kg/injection, schedule: Q03HX006 (ip), vehicle: saline, higher = larger tumour); 60 % of control (endpoint: median tumor weight (est.), dose: 112.5 mg/kg/injection, schedule: Q06HX004 (ip), vehicle: saline, higher = larger tumour). Moreover, the T/C (endpoint: median tumor weight (est.), dose: 150.0 mg/kg/injection, schedule: Q06HX004 (ip), vehicle: saline, higher = larger tumour) was 54 % of control; the T/C (endpoint: median tumor weight (est.), dose: 200.0 mg/kg/injection, schedule: Q01DX001 (ip), vehicle: saline, higher = larger tumour) is 20 % of control and 22 % of control; the T/C (endpoint: median tumor weight (est.), dose: 200.0 mg/kg/injection, schedule: Q06HX004 (ip), vehicle: saline, higher = larger tumour) is 9 % of control; the T/C (endpoint: median tumor weight (est.), dose: 200.0 mg/kg/injection, schedule: Q07DX002 (ip), vehicle: saline, higher = larger tumour) was 4 % of control and 9 % of control; the T/C (endpoint: median tumor weight (est.), dose: 266.7 mg/kg/injection, schedule: Q01DX001 (ip), vehicle: saline, higher = larger tumour) was 7 % of control and 13 % of control.

On to `O=C(O)Cc1cccc2c(=O)cc(C3CCCCC3)oc12`, for which the T/C runs as follows: (endpoint: median tumor weight (est.), dose: 100.0 mg/kg/injection, schedule: Q07DX002 (ip), vehicle: saline, higher = larger tumour) 90 % of control; (endpoint: median tumor weight (est.), dose: 400.0 mg/kg/injection, schedule: Q07DX002 (ip), vehicle: saline, higher = larger tumour) 82 % of control.

Take `OC(C1CO1)C(O)C1CO1` (stereo not drawn): the T/C (endpoint: median tumor weight (est.), dose: 2.0 mg/kg/injection, schedule: Q07DX002 (ip), vehicle: saline, higher = larger tumour) is 117 % of control; the T/C (endpoint: median tumor weight (est.), dose: 4.0 mg/kg/injection, schedule: Q07DX002 (ip), vehicle: saline, higher = larger tumour) is 107 % of control; the T/C (endpoint: median tumor weight (est.), dose: 8.0 mg/kg/injection, schedule: Q07DX002 (ip), vehicle: saline, higher = larger tumour) was 57 % of control.

In the case of `O=CC(O)C(O)C(O)C(O)CO` (stereo not drawn), the T/C (endpoint: median tumor weight (est.), dose: 75.0 mg/kg/injection, schedule: Q07DX002 (ip), vehicle: saline, higher = larger tumour) was 106 % of control; the T/C (endpoint: median tumor weight (est.), dose: 150.0 mg/kg/injection, schedule: Q07DX002 (ip), vehicle: saline, higher = larger tumour) is 79 % of control; the T/C (endpoint: median tumor weight (est.), dose: 300.0 mg/kg/injection, schedule: Q07DX002 (ip), vehicle: saline, higher = larger tumour) is 66 % of control; the T/C (endpoint: median tumor weight (est.), dose: 600.0 mg/kg/injection, schedule: Q07DX002 (ip), vehicle: saline, higher = larger tumour) is 94 % of control; the T/C (endpoint: median tumor weight (est.), dose: 1200.0 mg/kg/injection, schedule: Q07DX002 (ip), vehicle: saline, higher = larger tumour) is 110 % of control.

As to `O=C1NC(=O)/C(=C/C=C/c2ccccc2)S1`, the T/C was 67 % of control (endpoint: median tumor weight (est.), dose: 200.0 mg/kg/injection, schedule: Q07DX002 (ip), vehicle: saline with Tween-80, higher = larger tumour); 86 % of control (endpoint: median tumor weight (est.), dose: 400.0 mg/kg/injection, schedule: Q07DX002 (ip), vehicle: saline with Tween-80, higher = larger tumour); 63 % of control (endpoint: median tumor weight (est.), dose: 800.0 mg/kg/injection, schedule: Q07DX002 (ip), vehicle: saline with Tween-80, higher = larger tumour).

Regarding `O=C(O)CC(=O)O.[NH-]CC[NH-].[Pt+2]`, the T/C was 59 % of control (endpoint: median tumor weight (est.), dose: 28.13 mg/kg/injection, schedule: Q07DX002 (ip), vehicle: dextrose, higher = larger tumour) and 81 % of control (endpoint: median tumor weight (est.), dose: 56.25 mg/kg/injection, schedule: Q07DX002 (ip), vehicle: dextrose, higher = larger tumour).

For `COC(=O)Nc1nc2ccc(SC)cc2c(=O)[nH]1`, the T/C reads like this: under setting [1], 117 % of control; (endpoint: median tumor weight (est.), dose: 200.0 mg/kg/injection, schedule: Q07DX002 (ip), vehicle: Klucel (hydroxypropylcellulose) (HPC), higher = larger tumour) 84 % of control; (endpoint: median tumor weight (est.), dose: 400.0 mg/kg/injection, schedule: Q07DX002 (ip), vehicle: Klucel (hydroxypropylcellulose) (HPC), higher = larger tumour) 109 % of control.

For `O=C1C2CC(Cl)C(SSC3CC4C(=O)N(SC(Cl)(Cl)C(Cl)Cl)C(=O)C4CC3Cl)CC2C(=O)N1SC(Cl)(Cl)C(Cl)Cl` (stereo not drawn), the T/C by setting is: (endpoint: median tumor weight (est.), dose: 25.0 mg/kg/injection, schedule: Q07DX002 (ip), vehicle: Klucel (hydroxypropylcellulose) (HPC), higher = larger tumour) 91 % of control; under setting [1], 66 % of control; (endpoint: median tumor weight (est.), dose: 100.0 mg/kg/injection, schedule: Q07DX002 (ip), vehicle: Klucel (hydroxypropylcellulose) (HPC), higher = larger tumour) 74 % of control.

Values taken from PubChem BioAssay AID214 (DTP/NCI, 2004).
